The numbers were not newly measured in patent US20230255882A1, “LONG-LASTING RESORBABLE SUBCUTANEOUS IMPLANT WITH SUSTAINED RELEASE OF PRE-CONCENTRATED PHARMACOLOGICALLY ACTIVE SUBSTANCE IN POLYMER FOR THE TREATMENT OF PARKINSONS DISEASE” (priority 2020, published 2023), which cites them from elsewhere.

For the data set, the system named is Parkinson's disease. To be noted: intramuscular injection, 25 mg twice a week.

Consider `NC(=O)C1=CN([C@@H]2O[C@H](COP(=O)(O)OP(=O)(O)OC[C@H]3O[C@@H](n4cnc5c(N)ncnc54)[C@H](OP(=O)(O)O)[C@@H]3O)[C@@H](O)[C@H]2O)C=CC1` [NADPH], for which the motor symptoms result is given as “significant improvement in motor symptoms”.
